According to US11642342B2, “Combinations of estrogen receptor degraders and cyclin-dependent kinase inhibitors for treating cancer” (Accutar Biotechnology, priority 2019, dated 2023):

Experiments:
[1] = test system: MCF7 human xenograft tumors; test: Anti-tumor efficacy in MCF7 human xenograft tumors; format: in vivo; conditions: BALB/c nude mouse, 17β-estradiol tablet, treated for 21 days, versus each agent alone
Method: MCF-7 cells, a breast cancer cell cline, (10×10^6) in 0.1 mL of PBS mixed with 0.1 mL matrigel (total 0.2 mL) were inoculated subcutaneously at the right flank of each mouse, which has been implanted with 17β-estradiol (0.18 mg) tablet subcutaneously in the left flank three days before. When the average tumor volume reaches approximately 175 mm^3, the animals were randomized and treatment was started.
MCF-7 tumor cells (10×10^6) in 0.1 mL of PBS mixed with 0.1 mL matrigel (total 0.2 mL) were inoculated subcutaneously at the right flank of each BALB/c nude mouse, which has been implanted with 17β-estradiol (0.18 mg) tablet subcutaneously in the left flank three days before. When the average tumor volume reached approximately 175 mm^3, the animals were randomized and treated for 21 days with an ER degrader 160a alone, or with a CDK4/6 inhibitor, Palbociclib, alone, or with the combination of ER degrader 160a and Palbociclib.
MCF-7 tumor cells (10×10^6) in 0.1 mL of PBS mixed with 0.1 mL matrigel (total 0.2 mL) were inoculated subcutaneously at the right flank of each BALB/c nude mouse, which has been implanted with 17β-estradiol (0.18 mg) tablet subcutaneously in the left flank three days before. […]

[2] = test system: ER-positive T47D cells; test: T47D cell growth inhibition (CellTiter-Glo, 6 days), ER degrader plus CDK4/6 inhibitor; format: cell-based, human
[3] = test system: Tamoxifen-resistant MCF7 human xenograft tumors; test: Anti-tumor efficacy in tamoxifen-resistant MCF7 human xenograft tumors; format: in vivo; conditions: tamoxifen-resistant MCF7 xenograft (passage 9), BALB/c nude mouse, treated for 28; versus each agent alone
Method: Tamoxifen-resistant MCF-7 cells were subcutaneously implanted to establish cell line-derived xenograft tumors. […] This tumor was then defined as passage 0. The tumor fragments were constantly implanted into new animals (per passage) with 30 mg/kg Tamoxifen treatment. For the efficacy study, the passage 9 tamoxifen-resistant tumor fragments (˜30 mm3) were inoculated subcutaneously at the right flank of each BALB/c nude mouse, which has been implanted with 17β-estradiol (0.36 mg) tablet subcutaneously in the left flank three days before. When the average tumor volume reached approximately 175 mm3, the animals were randomized and treated for 28. Tamoxifen-resistant MCF7 human xenograft tumors were treated with an ER degrader 160b alone, or with a CDK4/6 inhibitor, Palbociclib, alone, or with the combination of ER degrader 160b and Palbociclib.

SMILES	tumor growth inhibition, combination with Palbociclib [1]	cell growth inhibition, combination with Abemaciclib ([2]; ER degrader at increasing concentrations combined with Abemaciclib 10, 30, 100 nM, versus single agent)	cell growth inhibition, combination with Palbociclib ([2]; ER degrader at increasing concentrations combined with Palbociclib 10, 30, 100 nM, versus each agent alone)	tumor growth inhibition, combination with Palbociclib [3]
CCC(=C(c1ccc(O)cc1)c1ccc(N2CCC(CN3CCN(c4ccc5c(c4)CN([C@H]4CCC(=O)NC4=O)C5=O)CC3)CC2)cc1)c1ccccc1 [160a, (E)/(Z)-(S)-3-(5-(4-((1-(4-(1-(4-hydroxyphenyl)-2-phenylbut-1-en-1-yl)phenyl)piperidin-4-yl)methyl)piperazin-1-yl)-1-oxoisoindolin-2-yl)piperidine-2,6-dione]	synergizes with CDK4/6 inhibitor Palbociclib in vivo to inhibit tumor growth with greater efficacy than the ER degrader or CDK4/6 inhibitor alone	synergizes with CDK4/6 inhibitor Abemaciclib in vitro to inhibit cell growth with greater efficacy than the ER degrader alone	synergizes with CDK4/6 inhibitor Palbociclib in vitro to inhibit cell growth with greater efficacy than the ER degrader or CDK4/6 inhibitor alone	–
CC/C(=C(\c1ccc(O)cc1)c1ccc(N2CCC(CN3CCN(c4ccc5c(c4)CN([C@H]4CCC(=O)NC4=O)C5=O)CC3)CC2)cc1)c1ccccc1 [160b]	–	–	–	synergizes with CDK4/6 inhibitor Palbociclib in vivo to inhibit tumor growth with greater efficacy than the ER degrader or CDK4/6 inhibitor alone
